Data on four compounds can be found in US8828469B2, “Use of alkamides for masking an unpleasant flavor” (Symrise AG, priority 2007, dated 2014).

This test can be described thus: Tests carried out by the Applicant on masking or reducing unpleasant flavor impressions. The settings on record: for effect for masking or reducing the unpleasant flavor impression of an unpleasant-tasting substance: among the alkamides tested by the Applicant.

Regarding `CCCCC/C=C/C=C\C(=O)NCC(C)C` [Formula (4), 2Z,4E-decadienoic acid-N-isobutylamide], the “effect for masking or reducing the unpleasant flavor impression of an unpleasant-tasting substance” value is listed as “best effect”.

As to `CCCCC/C=C\C=C/C(=O)NCC(C)C` [Formula (3), 2Z,4Z-decadienoic acid-N-isobutylamide], the “effect for masking or reducing the unpleasant flavor impression of an unpleasant-tasting substance” value is recorded as “best effect”.

Regarding `CCCCC/C=C/C=C/C(=O)NCC(C)C` [Formula (1), 2E,4E-decadienoic acid-N-isobutylamide], the “effect for masking or reducing the unpleasant flavor impression of an unpleasant-tasting substance” value was “best effect”. Further, under “very low concentrations which are not sufficient to intensify salivation”, the “effect to change, mask or reduce the unpleasant flavor impression” value was “very strong effect”.

Take `CCCCC/C=C\C=C\C(=O)NCC(C)C` [Formula (2), 2E,4Z-decadienoic acid-N-isobutylamide]: the “effect for masking or reducing the unpleasant flavor impression of an unpleasant-tasting substance” value is given as “best effect”.
